Experimental data reported in ChEMBL document CHEMBL4393662, “Structural optimization on a virtual screening hit of smoothened receptor” (Eur J Med Chem, 2019).
Activity calls are given as the source filed them. The calls are words filed in the database; no cut-off is given here.

Experiments:
[1] = target: Protein smoothened (Mus musculus, UniProt P56726); test: Antagonist activity at Smo receptor in mouse NIH/3T3 cells harboring GRE-Luc assessed as inhibition of SAG-induced Hh signaling pathway preincubated with cells followed by SAG addition measured after 48 hrs by luciferase reporter gene assay; assay type: cell-based
[2] = tested on: HEK293; test: Inhibition of Wnt pathway in HEK293 cells harbouring TCF-luciferase cocultured with LWnt3A cells by Topflash reporter gene assay; assay type: cell-based; conditions: Homo sapiens
[3] = tested on: Protein smoothened (Homo sapiens), Q99835 [D473H]; test: Antagonist activity at Smo D473H mutant receptor in mouse NIH/3T3 cells assessed as inhibition of Gli1 mRNA expression incubated for 48 hrs by qRT-PCR analysis; assay type: cell-based
[4] = Intrinsic clearance in rat liver microsomes at 1 uM; assay type: ADME, Microsome; conditions: read-out: CLH
[5] = tested on: Medulloblastoma cell; test: Antiproliferative activity against mouse Ptch+/- medulloblastoma cells assessed as inhibition of cell growth incubated for 36 hrs by CCK-8 assay; assay type: functional, cell-based
[6] = Half life in rat liver microsomes at 1 uM; assay type: ADME, Microsome
[7] = Apparent permeability from apical to basolateral side in human Caco2 cells; assay type: ADME, cell-based; conditions: Caco-2
[8] = target: CYP2C19 (Homo sapiens, UniProt P33261); test: Inhibition of CYP2C19 (unknown origin) at 10 uM relative to control; assay type: ADME
[9] = Intrinsic clearance in human liver microsomes at 1 uM; assay type: ADME, Microsome; conditions: read-out: CLH
[10] = Efflux ratio of apparent permeability in human Caco2 cells; assay type: ADME, cell-based; conditions: Caco-2
[11] = target: CYP3A4 (Homo sapiens, UniProt P08684); test: Inhibition of CYP3A4 (unknown origin) at 10 uM relative to control; assay type: ADME
[12] = target: CYP2C9 (Homo sapiens, UniProt P11712); test: Inhibition of CYP2C9 (unknown origin) at 10 uM relative to control; assay type: ADME
[13] = tested on: U-251; test: Cytotoxicity activity human U251 cells assessed as reduction of cell viability upto 1000 nM incubated for 48 hrs by CCK-8 assay; assay type: cell-based; conditions: u-251, 48 h
[14] = Half life in human liver microsomes at 1 uM; assay type: ADME, Microsome
[15] = target: CYP2D6 (Homo sapiens, UniProt P10635); test: Inhibition of CYP2D6 (unknown origin) at 10 uM relative to control; assay type: ADME
[16] = target: Protein smoothened (Mus musculus) (UniProt P56726); test: Antagonist activity at Smo receptor in mouse NIH/3T3 cells assessed as inhibition of Gli1 mRNA expression incubated for 48 hrs by qRT-PCR analysis; assay type: cell-based
[17] = target: Voltage-gated inwardly rectifying potassium channel KCNH2 (Homo sapiens, UniProt Q12809); test: Inhibition of human ERG by patch clamp method
[18] = target: T1, CYP1A2 (Homo sapiens, UniProt P05177); test: Inhibition of CYP1A2 (unknown origin) at 10 uM relative to control; assay type: ADME
T1 sequence (P05177 whole entry): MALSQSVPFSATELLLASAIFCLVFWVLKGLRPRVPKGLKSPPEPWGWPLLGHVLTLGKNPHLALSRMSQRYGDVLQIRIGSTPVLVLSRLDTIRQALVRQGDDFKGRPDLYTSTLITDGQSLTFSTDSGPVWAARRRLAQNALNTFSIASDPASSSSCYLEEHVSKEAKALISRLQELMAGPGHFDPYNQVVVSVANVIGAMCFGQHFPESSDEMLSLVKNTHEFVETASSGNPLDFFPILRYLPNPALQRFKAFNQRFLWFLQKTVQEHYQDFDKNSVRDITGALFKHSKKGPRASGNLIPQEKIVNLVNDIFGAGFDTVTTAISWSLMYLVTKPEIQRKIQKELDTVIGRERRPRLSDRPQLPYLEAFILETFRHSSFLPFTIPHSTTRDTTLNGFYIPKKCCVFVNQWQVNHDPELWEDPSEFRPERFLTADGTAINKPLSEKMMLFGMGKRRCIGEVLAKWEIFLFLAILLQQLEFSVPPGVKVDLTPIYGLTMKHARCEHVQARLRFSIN

[19] = target: Protein smoothened (Homo sapiens, UniProt Q99835); test: Displacement of BODIPY-Cyclopamine from human HA-tagged Smo receptor expressed in human U2OS cells at 1 to 10000 nM incubated for 2 hrs by DAPI staining based fluorescence microscopic method; assay type: cell-based
Chain of Protein smoothened (Homo sapiens, UniProt Q99835) (Q99835 whole entry): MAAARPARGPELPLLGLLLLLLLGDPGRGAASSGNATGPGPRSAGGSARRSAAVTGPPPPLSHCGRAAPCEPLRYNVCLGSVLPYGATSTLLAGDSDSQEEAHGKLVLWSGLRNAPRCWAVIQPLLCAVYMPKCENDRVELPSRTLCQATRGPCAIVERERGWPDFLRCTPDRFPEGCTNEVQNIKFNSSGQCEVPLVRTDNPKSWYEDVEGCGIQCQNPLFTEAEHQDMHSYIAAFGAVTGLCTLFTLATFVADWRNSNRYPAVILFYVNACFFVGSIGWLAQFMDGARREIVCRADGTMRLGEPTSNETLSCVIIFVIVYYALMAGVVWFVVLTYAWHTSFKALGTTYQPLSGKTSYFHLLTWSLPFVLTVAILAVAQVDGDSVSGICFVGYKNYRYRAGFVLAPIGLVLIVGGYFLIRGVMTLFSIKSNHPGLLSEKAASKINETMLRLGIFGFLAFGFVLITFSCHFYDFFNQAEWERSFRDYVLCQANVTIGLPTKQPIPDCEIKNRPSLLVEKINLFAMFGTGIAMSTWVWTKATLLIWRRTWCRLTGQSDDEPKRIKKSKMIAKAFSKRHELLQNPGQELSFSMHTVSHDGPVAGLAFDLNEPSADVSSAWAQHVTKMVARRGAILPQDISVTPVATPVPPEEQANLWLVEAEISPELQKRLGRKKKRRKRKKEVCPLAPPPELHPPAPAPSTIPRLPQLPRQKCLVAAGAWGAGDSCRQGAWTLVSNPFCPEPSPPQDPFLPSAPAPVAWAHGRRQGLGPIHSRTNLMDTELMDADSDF

Chain of Protein smoothened (Mus musculus, UniProt P56726) (P56726 whole entry): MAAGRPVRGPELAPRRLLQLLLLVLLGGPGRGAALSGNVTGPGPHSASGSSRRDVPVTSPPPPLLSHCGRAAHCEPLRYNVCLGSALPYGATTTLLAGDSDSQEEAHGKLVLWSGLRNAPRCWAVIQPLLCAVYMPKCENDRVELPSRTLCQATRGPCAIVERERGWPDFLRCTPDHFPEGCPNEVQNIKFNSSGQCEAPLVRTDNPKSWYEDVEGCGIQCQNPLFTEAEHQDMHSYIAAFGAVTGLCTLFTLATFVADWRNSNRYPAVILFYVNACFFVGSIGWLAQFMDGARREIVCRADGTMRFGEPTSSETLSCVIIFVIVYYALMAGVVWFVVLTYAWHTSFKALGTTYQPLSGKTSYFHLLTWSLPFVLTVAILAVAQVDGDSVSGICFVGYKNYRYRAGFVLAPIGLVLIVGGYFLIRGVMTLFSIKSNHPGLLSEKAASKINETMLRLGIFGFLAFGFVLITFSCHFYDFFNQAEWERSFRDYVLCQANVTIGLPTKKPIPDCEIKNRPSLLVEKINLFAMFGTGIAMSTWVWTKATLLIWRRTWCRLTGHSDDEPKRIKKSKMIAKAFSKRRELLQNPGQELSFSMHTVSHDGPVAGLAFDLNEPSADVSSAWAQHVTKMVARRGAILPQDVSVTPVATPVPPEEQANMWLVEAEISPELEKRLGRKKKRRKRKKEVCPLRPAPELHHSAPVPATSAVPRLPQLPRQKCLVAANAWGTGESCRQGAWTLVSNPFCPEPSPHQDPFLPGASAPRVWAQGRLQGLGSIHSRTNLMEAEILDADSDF
Chain of Protein smoothened (Homo sapiens), Q99835 [D473H] (Q99835 whole entry D473H): as the sequence (Q99835 whole entry) above, with D473H counted along it
Chain of CYP2D6 (P10635 whole entry): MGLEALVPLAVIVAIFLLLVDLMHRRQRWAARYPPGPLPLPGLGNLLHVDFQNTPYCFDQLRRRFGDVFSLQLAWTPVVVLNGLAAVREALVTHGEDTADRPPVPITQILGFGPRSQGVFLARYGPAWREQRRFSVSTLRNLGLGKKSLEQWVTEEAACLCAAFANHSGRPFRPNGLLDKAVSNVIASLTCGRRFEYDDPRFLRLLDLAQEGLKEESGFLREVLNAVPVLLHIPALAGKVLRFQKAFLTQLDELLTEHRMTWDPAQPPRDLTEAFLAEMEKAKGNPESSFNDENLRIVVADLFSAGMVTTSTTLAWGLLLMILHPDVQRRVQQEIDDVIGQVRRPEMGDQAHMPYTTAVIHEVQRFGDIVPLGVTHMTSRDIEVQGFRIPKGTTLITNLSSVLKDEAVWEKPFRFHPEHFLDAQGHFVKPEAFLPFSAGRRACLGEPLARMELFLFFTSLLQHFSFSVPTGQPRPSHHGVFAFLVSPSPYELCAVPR
Chain of CYP3A4 (P08684 whole entry): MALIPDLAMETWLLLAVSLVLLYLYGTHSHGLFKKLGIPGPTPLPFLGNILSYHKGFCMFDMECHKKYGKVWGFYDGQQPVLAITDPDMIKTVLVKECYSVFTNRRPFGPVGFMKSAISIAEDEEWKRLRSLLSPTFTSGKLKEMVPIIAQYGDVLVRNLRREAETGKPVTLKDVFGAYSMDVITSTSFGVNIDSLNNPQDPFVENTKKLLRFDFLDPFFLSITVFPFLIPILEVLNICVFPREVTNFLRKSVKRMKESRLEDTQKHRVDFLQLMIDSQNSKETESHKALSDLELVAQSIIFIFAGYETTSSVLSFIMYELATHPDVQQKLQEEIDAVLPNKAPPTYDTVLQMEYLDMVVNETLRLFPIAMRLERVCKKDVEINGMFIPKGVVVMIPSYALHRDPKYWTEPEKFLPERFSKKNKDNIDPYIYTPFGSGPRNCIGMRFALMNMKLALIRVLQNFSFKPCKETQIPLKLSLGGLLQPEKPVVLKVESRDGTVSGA
Chain of CYP2C19 (P33261 whole entry): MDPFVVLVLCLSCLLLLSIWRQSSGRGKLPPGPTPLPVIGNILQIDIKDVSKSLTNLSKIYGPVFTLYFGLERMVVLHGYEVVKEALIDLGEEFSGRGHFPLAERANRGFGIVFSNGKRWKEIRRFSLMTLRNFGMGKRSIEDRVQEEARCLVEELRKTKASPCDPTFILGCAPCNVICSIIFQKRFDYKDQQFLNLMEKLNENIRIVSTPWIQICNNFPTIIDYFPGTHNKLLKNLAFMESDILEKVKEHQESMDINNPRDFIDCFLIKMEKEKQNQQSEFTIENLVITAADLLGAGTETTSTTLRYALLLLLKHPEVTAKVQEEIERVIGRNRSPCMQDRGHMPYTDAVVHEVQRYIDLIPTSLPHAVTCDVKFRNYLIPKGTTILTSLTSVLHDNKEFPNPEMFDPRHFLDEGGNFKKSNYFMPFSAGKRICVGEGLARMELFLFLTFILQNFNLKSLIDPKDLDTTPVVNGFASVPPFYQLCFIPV
Chain of Voltage-gated inwardly rectifying potassium channel KCNH2 (Q12809 whole entry): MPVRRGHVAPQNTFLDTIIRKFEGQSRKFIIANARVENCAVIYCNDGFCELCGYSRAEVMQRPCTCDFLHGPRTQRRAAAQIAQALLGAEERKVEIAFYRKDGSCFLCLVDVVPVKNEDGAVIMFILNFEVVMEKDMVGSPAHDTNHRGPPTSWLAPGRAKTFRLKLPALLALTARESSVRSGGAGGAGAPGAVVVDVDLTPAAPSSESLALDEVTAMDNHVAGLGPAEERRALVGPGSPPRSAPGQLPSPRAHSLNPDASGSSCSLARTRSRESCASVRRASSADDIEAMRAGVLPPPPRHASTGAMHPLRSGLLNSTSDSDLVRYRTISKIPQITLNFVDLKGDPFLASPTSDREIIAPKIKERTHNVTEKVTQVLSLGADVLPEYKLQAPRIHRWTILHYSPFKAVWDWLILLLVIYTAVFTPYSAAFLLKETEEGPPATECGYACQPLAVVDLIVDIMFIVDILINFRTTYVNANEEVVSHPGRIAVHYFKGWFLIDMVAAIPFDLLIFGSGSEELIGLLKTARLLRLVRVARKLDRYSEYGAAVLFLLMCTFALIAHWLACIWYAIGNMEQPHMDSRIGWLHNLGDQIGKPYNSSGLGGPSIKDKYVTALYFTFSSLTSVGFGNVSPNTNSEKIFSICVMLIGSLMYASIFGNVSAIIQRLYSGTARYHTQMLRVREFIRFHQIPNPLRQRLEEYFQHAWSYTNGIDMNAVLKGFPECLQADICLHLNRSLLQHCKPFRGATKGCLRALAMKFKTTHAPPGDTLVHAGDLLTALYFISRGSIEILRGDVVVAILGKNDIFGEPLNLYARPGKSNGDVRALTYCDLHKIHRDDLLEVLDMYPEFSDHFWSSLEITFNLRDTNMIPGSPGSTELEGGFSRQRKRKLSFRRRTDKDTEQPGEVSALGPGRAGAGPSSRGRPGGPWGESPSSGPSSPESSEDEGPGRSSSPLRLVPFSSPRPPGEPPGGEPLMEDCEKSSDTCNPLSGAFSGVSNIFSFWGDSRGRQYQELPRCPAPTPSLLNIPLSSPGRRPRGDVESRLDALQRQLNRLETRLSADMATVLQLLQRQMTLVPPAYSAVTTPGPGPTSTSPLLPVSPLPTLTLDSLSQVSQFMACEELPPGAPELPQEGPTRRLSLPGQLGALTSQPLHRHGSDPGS
Chain of CYP2C9 (P11712 whole entry): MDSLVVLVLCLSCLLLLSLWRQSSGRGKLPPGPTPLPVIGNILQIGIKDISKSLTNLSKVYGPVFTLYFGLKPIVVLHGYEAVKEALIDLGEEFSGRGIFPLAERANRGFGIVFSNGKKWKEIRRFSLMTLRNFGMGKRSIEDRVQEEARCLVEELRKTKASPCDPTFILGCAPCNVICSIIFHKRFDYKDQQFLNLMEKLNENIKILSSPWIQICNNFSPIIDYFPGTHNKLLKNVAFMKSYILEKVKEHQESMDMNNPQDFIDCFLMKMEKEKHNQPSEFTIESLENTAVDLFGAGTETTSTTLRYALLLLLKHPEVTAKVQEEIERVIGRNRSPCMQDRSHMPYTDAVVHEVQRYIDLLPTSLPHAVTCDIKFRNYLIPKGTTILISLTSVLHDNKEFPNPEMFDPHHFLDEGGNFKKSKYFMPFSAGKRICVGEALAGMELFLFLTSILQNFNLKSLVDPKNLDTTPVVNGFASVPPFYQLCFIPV
Chain of Protein smoothened (Mus musculus) (P56726 whole entry): as the sequence (P56726 whole entry) above

Structure (SMILES) | IC50 [1] [nM] | inhibition [2] | also measured
CN(C(=O)c1ccc(F)cc1C(F)(F)F)C1CCN(c2nnc(-c3ccnn3C)s2)CC1 | > 10000 | – | –
CC1CCCCC1NC(=O)C1CCN(c2nnc(-n3cccn3)s2)CC1 (configuration not stated) | > 10000 | – | –
Cc1ccc(NCc2ccnn2-c2nnc(N3CCC(C(=O)N[C@@H]4CCCC[C@@H]4C)CC3)s2)nc1 | 8.4 | Active | –
Cc1ccc(OCc2ccnn2-c2nnc(N3CCC(C(=O)NC4CCCCC4C)CC3)s2)nc1 (configuration not stated) | 42 | Active | –
Cc1ccc(NCc2ccnn2-c2nnc(N3CCC(C(=O)Nc4cnccc4C)CC3)s2)nc1 | 550 | Active | –
CC1CCCCC1NC(=O)C1CCN(c2nnc(-n3nccc3CO)s2)CC1 (configuration not stated) | > 10000 | – | –
Cc1ccc(NCc2c(-c3nnc(N4CCC(C(=O)NC5CCCCC5C)CC4)s3)cnn2C)nc1 (configuration not stated) | 1800 | Active | –
C[C@@H]1CN(c2nnc(Cc3ccccc3)s2)CCN1c1cnc(C(C)(C)O)cn1 | > 10000 | – | –
Cc1ccc(NCc2ccnn2-c2nnc(N3CCC(C(=O)N[C@H]4CCCC[C@H]4C)CC3)s2)nc1 | 7.1 | Active | inhibition [3]: Active; CLint scaled at 1 µM [4]: 2000 mL/min/kg; IC50 [5]: 0.5 nM; half-life at 1 µM [6]: 78 s; Papp A→B [7]: 23 ×10⁻⁶ cm/s; inhibition at 10 µM [8]: 7.1%; CLint scaled at 1 µM [9]: 2700 mL/min/kg; efflux ratio [10]: 1.03; inhibition at 10 µM [11]: 72%; inhibition at 10 µM [12]: 26%; Activity [13]: Non-Toxic; half-life at 1 µM [14]: 38.4 s; inhibition at 10 µM [15]: 59%; inhibition [16]: Active; IC50 [17]: > 30000 nM; inhibition at 10 µM [18]: -4%
Cc1ccc(NCc2ccnn2-c2nnc(N3CCC(C(=O)NC4CCCCC4C)CC3)s2)nc1 (racemic) | 7.1 | Active | IC50 [19]: 3.9 nM
Cc1ccc(NCc2ccnn2-c2nnc(N3CCC(C(=O)Nc4ccccc4C)CC3)s2)nc1 | 140 | Active | –
Cc1ccc(NCc2ccnn2-c2nnc(N3CCC(C(=O)NC4CCCCC4C)CC3)s2)nn1 (configuration not stated) | 81 | Active | –
Cc1ccc(CCc2ccnn2-c2nnc(N3CCC(C(=O)NC4CCCCC4C)CC3)s2)nc1 (configuration not stated) | 57 | Active | –
CS(=O)(=O)c1ccc(C(=O)Nc2ccc(Cl)c(-c3ccccn3)c2)c(Cl)c1 [VISMODEGIB] | – | – | inhibition [3]: inactive; IC50 [5]: 4.7 nM; Activity [13]: Non-Toxic
CC1CCCCC1NC(=O)C1CCN(c2nnc(-n3nccc3CNc3cccnc3)s2)CC1 (configuration not stated) | 69 | Active | –
Cc1ccc(NCc2ccnn2-c2nnc(N3CCC(C(=O)Nc4ncccc4C)CC3)s2)nc1 | 280 | Active | –
CC1CCCCC1NC(=O)C1CCN(c2nnc(-c3ccnn3C)s2)CC1 (configuration not stated) | > 10000 | – | –
Cc1ccc(NCc2ccnn2-c2nnc(N3CCC(C(=O)NC4CCCCC4C)CC3)s2)cn1 (configuration not stated) | 51 | Active | –
CC1CCCCC1NC(=O)C1CCN(c2nnc(-n3nccc3CNc3ccccn3)s2)CC1 (configuration not stated) | 18 | Active | –
Cc1cnc(NCc2ccnn2-c2nnc(N3CCC(C(=O)NC4CCCCC4C)CC3)s2)nc1 (configuration not stated) | 180 | Active | –
Cc1ccc(NCc2ccnn2-c2nnc(N3CCC(C(=O)Nc4ccncc4C)CC3)s2)nc1 | 220 | Active | –
Cc1cc(C)n(-c2nnc(N3CCC(C(=O)NC4CCCCC4C)CC3)s2)n1 (configuration not stated) | > 10000 | – | –
Cc1ccc(NCc2ccnn2-c2nnc(N3CCC(C(=O)NC4CCCCC4C)CC3)s2)cc1 (configuration not stated) | 46 | Active | IC50 [19]: 18 nM
CC(O)c1ccnn1-c1nnc(N2CCC(C(=O)NC3CCCCC3C)CC2)s1 (configuration not stated) | 3700 | Active | –
Cc1cnc(NCc2ccnn2-c2nnc(N3CCC(C(=O)NC4CCCCC4C)CC3)s2)cn1 (configuration not stated) | 410 | Active | –
Cc1ccc(NCc2ccccc2-c2nnc(N3CCC(C(=O)NC4CCCCC4C)CC3)s2)nc1 (configuration not stated) | 290 | Active | –
Cc1ccc(NCc2ccnn2-c2nnc(N3CCC(C(=O)Nc4cccnc4C)CC3)s2)nc1 | 460 | Active | –
